How the values were obtained:
[1] = In vitro intrinsic clearance; format: in vitro ADME; settings: human liver microsomes, 1 μM
Description: Example G. In Vitro Intrinsic Clearance Protocol
For in vitro metabolic stability experiments, test compounds were incubated with human liver microsomes at 37° C. The incubation mixture contained test compounds (1 μM), NADPH (2 mM), and human liver microsomes (0.5 mg protein/mL) in 100 mM phosphate buffer (pH 7.4). The mixture was pre-incubated for 2 min at 37° C. before the addition of NADPH. Reactions were commenced upon the addition of NADPH and quenched with ice-cold methanol at 0, 10, 20, and 30 min. Terminated incubation mixtures were analyzed using LC-MS/MS system. The analytical system consisted of a Shimadzu LC-30AD binary pump system and SIL-30AC autosampler (Shimadzu Scientific Instruments, Columbia, MD) coupled with a Sciex Triple Quad 6500+ mass spectrometer from Applied Biosystems (Foster City, CA). […] Mobile phase A consisted of 0.1% formic acid in water, and mobile phase B consisted of 0.1% formic acid in acetonitrile. The total LC-MS/MS runtime was 2.75 minutes with a flow rate of 0.75 mL/min. Peak area integrations and peak area ratio calculations were performed using Analyst software (version 1.6.3) from Applied Biosystems.
The in vitro intrinsic clearance, CLint, in vitro, was calculated from the t1/2 of test compound disappearance as CLint, in vitro=(0.693/t1/2)×(1/Cprotein), where Cprotein is the protein concentration during the incubation, and t1/2 was determined by the slope (k) of the log-linear regression analysis of the concentration versus time profiles; thus, t1/2=ln 2/k. The CLint, in vitro values were scaled to the in vivo values for human by using physiologically based scaling factors, hepatic microsomal protein concentrations (45 mg protein/g liver), and liver weights (21 g/kg body weight). The equation CLint=CLint, in vitro×(mg protein/g liver weight)×(g liver weight/kg body weight) was used. The in vivo hepatic clearance (CLH) was then calculated by using CLint and hepatic blood flow, Q (20 mL·min^−1·kg^−1 in humans) in the well-stirred liver model disregarding all binding from CLH=(Q×CLint)/(Q+CLint). The hepatic extraction ratio was calculated as CLH divided by Q.

TRKA [2] = biological target: TRKA (Homo sapiens, UniProt P04629); assay: TRKA enzymatic assay; format: biochemical; settings: 1 mM ATP
Description: (§1) Example I. TRKA Enzymatic Assay
(§2) The kinase assays were carried out at 24° C. temperature in assay buffer (HEPES 50 mM, pH 7.0, NaN3 0.02%, BSA 0.01%, Orthovanadate 0.1 mM, DTT 1 mM, MgCl2 10 mM) in a final volume of 10 μL. Testing compounds were prepared by serial dilution in DMSO and transferred to the plate wells by ECHO liquid handler (Labcyte) with 0.5% DMSO in the final assay. […]. Reactions were initiated by the addition of 5 μL ATP in assay buffer. The final 10 μL kinase reaction consists of 0.58 nM TRKA, 1 mM ATP, 500 nM TK Substrate-biotin and SEB reagent 62.5 nM in assay buffer. […] After 60 minutes incubation at room temperature, the product activity was determined by measuring the fluorescence at 620 nm and 665 nm on Pherastar microplate reader (BMG Labtech). A ratio is calculated (665/620 nm) for each well. Wells with DMSO only were served as the positive controls and wells containing no ATP were used as negative controls. IC50 determination was performed by fitting the curve of percent control activity versus the log of the compound concentration using the Gene data.

TRKA [3] = assay: TRKA enzymatic assay; format: biochemical
Description: as §1, §2

[4] = test system: STAT5 (Tyr694) phosphorylation in SET-2 cells; assay: STAT5 (Tyr694) phosphorylation cell based assay; settings: Homo sapiens, pSTAT5, 2 hours, read-out: SET2 IC50
Description: Example E. STAT5 (Tyr694) Phosphorylation Cell Based Assay
SET-2 cells was purchased from DSMZ (Germany). RPMI1640 medium, Fetal Bovine Serum and 384-white sold flat-bottom small volume plate were purchased from Thermo Fisher Scientific (Waltham, MA). Phospho-STAT5 (Tyr694) HTRF kit was purchased from Perkin Elmer (Waltham, MA).
SET-2 cells were cultured in RPMI media with 20% FBS at 37° C. in humidified incubator supplied with 5% CO2. On the day of assay, the cells were centrifuged to remove the culture media and resuspended with prewarmed RPMI with 10% FBS. Testing compounds were prepared by serial dilution in DMSO and 50 nL/well test compounds were transferred to the 384 white low volume cell culture plate (Greiner Bio-one) by ECHO liquid handler (Labcyte). The cells were then dispensed with Multidrop (Thermo Fisher, Waltham, MA) at 10 μL/well (7×10^6 cells/mL) with 0.5% DMSO in the final assay. After the treated cells were incubated for 2 hours at 37° C./5% CO2 incubator, 4 μL/well supplemented lysis buffer (100× blocking buffer diluted 25 fold in 4× lysis buffer, Perkin Elmer) were added and incubated at room temperature for 90 min on orbital shaker at 600 rpm. Phospho-STAT5 Cryptate antibody and Phospho-STAT5 d2 antibody (1:1 vol/vol) were premixed and diluted 20 fold with in the detection buffer (Perkin Elmer). 4 μL of the premixed antibody solution were added to each well followed with 24 hours incubation at room temperature on orbital shaker at 600 rpm. The product activity was determined by measuring the fluorescence at 620 nm and 665 nm on Pherastar microplate reader (BMG Labtech). A ratio is calculated (665/620) for each well. Wells with DMSO only served as the positive controls and wells containing high concentration of control compound were used as negative controls. IC50 determination was performed by fitting the curve of percent control activity versus the log of the compound concentration using the GraphPad Prism 7.0 software.

KIT [5] = assay: KIT enzymatic assay; format: biochemical
Description: (§3) Example D. KIT Enzymatic Assay
(§4) The kinase assays were carried out at room temperature in assay buffer (HEPES 50 mM, pH 7.0, NaN3 0.02%, BSA 0.01%, Orthovanadate 0.1 mM, DTT 1 mM, MgCl2 10 mM) in a final volume of 10 μL. Testing compounds were prepared by serial dilution in DMSO and transferred to the plate wells by ECHO liquid handler (Labcyte) with 0.5% DMSO in the final assay. […]. Reactions were initiated by the addition of 5 μL ATP in assay buffer. The final 10 μL kinase reaction consists of 0.12 nM KIT, 1 mM ATP, 500 nM TK Substrate-biotin and SEB reagent 62.5 nM in assay buffer. […] The plates were then sealed and centrifuged at 1800 rpm for 2 minutes. After 60 minutes incubation at room temperature, the product activity was determined by measuring the fluorescence at 620 nm and 665 nm on Pherastar microplate reader (BMG Labtech). A ratio is calculated (665/620 nm) for each well. Wells with DMSO only were served as the positive controls and wells containing no ATP were used as negative controls. IC50 determination was performed by fitting the curve of percent control activity versus the log of the compound concentration using the GraphPad Prism 7.0 software.

KIT [6] = biological target: KIT (Homo sapiens, UniProt P10721); assay: KIT enzymatic assay; format: biochemical; settings: 1 mM ATP
Description: as §3, §4

Chain of TRKA (Homo sapiens, UniProt P04629) (P04629 33-796, species assumed): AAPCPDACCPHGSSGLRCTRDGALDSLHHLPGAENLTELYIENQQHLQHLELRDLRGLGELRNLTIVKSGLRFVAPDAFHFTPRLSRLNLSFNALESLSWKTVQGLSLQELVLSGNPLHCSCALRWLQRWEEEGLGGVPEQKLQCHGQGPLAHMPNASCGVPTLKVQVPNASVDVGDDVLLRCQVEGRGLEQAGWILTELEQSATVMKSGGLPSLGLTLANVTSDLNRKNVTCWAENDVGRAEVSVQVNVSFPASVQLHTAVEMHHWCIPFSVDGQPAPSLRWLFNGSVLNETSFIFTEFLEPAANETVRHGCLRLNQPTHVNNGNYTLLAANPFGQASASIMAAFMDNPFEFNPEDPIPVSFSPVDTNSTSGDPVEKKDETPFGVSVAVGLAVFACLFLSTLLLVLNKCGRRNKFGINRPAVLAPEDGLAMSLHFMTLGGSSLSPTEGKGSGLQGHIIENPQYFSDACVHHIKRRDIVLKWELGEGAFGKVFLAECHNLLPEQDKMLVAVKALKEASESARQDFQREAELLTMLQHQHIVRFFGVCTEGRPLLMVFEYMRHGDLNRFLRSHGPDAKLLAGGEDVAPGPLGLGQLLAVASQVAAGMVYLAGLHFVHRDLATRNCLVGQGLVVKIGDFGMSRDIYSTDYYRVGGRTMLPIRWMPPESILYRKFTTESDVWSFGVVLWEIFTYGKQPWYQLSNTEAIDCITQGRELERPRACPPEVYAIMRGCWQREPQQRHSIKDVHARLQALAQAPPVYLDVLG
Chain of KIT (Homo sapiens, UniProt P10721) (P10721 26-976, species assumed): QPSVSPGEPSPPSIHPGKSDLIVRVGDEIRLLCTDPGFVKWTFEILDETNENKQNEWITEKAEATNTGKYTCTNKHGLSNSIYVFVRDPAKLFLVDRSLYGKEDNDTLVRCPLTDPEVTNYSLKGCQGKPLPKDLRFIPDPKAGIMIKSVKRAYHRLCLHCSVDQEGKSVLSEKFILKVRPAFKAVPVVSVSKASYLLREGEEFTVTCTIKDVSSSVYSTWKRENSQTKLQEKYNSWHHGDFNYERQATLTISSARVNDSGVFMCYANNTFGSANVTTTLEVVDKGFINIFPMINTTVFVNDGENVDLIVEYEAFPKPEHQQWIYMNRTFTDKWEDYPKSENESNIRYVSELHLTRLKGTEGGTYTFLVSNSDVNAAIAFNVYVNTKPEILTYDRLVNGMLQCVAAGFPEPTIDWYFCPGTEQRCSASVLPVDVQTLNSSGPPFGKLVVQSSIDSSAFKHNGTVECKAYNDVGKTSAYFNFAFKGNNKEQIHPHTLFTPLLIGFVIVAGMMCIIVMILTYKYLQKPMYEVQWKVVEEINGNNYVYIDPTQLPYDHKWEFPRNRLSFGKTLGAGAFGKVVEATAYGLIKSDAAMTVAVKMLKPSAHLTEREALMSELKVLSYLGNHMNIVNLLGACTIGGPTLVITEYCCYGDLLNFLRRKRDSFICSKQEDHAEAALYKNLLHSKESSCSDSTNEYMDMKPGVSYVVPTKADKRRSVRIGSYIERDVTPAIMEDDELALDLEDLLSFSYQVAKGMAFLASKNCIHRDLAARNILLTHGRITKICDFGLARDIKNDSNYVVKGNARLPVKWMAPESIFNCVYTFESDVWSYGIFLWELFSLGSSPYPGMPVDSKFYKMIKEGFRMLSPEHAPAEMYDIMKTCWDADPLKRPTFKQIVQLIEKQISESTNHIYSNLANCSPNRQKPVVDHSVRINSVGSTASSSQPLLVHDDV

SMILES	h-IntCL [1]	IC50 (TRKA [2]) [nM]	Selectivity TRKA/JH2 V617F (TRKA [3])	IC50 [4] [nM]	Selectivity KIT/JH2 V617F (KIT [5])	IC50 (KIT [6]) [nM]
COc1nn(C)cc1-c1[nH]c2ncc3c(c2c1-c1ccc2c(cnn2C)c1)n(C1CCOCC1)c(=O)n3C [A, reference compound]	‡ ‡ ‡ (h-IntCL of >1 L/h/kg)	1250 to 2500	** (selectivity of >500-fold to ≤1500-fold)	> 800	* (selectivity of ≤500-fold)	250 to 1250
[2H]C([2H])([2H])n1ncc2cc(-c3c(-c4cn(C)nc4OC)[nH]c4ncc5c(c34)n(C3CCOCC3)c(=O)n5C)ccc21 [B, reference compound]	‡ ‡ (h-IntCL of ≥0.7 L/h/kg to ≤1 L/h/kg)	> 2500	** (selectivity of >500-fold to ≤1500-fold)	> 800	** (selectivity of >500-fold to ≤1500-fold)	–
COc1nn(C)cc1-c1[nH]c2ncc3c(c2c1-c1ccc2c(cnn2C)c1)n([C@H]1CC[C@@H](CC#N)CC1)c(=O)n3C [E, reference compound]	‡ ‡ ‡ (h-IntCL of >1 L/h/kg)	250 to 1250	** (selectivity of >500-fold to ≤1500-fold)	300 to 800	*** (selectivity of >1500-fold to ≤1750-fold)	1250 to 2500
COC(=O)N[C@@H]1CC[C@@H](n2c(=O)n(C)c3cnc4[nH]c(-c5cn(C)nc5OC)c(-c5ccc(F)cc5)c4c32)C1 [Example 1, Methyl ((1R,3R)-3-(8-(4-fluorophenyl)-7-(3-methoxy-1-methyl-1H-pyrazol-4-yl)-3-methyl-2-oxo-3,6-dihydroimidazo[4,5-d]pyrrolo[2,3-b]pyridin-1(2H)-yl)cyclopentyl)carbamate]	‡ ‡ (h-IntCL of ≥0.7 L/h/kg to ≤1 L/h/kg)	1250 to 2500	** (selectivity of >500-fold to ≤1500-fold)	> 800	***** (selectivity of >5000-fold to ≤12500-fold)	> 2500
COC(=O)N[C@@H]1CC[C@@H](n2c(=O)n(C)c3cnc4[nH]c(-c5cn(C)nc5OC)c(-c5ccccc5)c4c32)C1 [Example 2, Methyl ((1R,3R)-3-(7-(3-methoxy-1-methyl-1H-pyrazol-4-yl)-3-methyl-2-oxo-8-phenyl-3,6-dihydroimidazo[4,5-d]pyrrolo[2,3-b]pyridin-1(2H)-yl)cyclopentyl)carbamate]	‡ ‡ (h-IntCL of ≥0.7 L/h/kg to ≤1 L/h/kg)	> 2500	**** (selectivity of >1750-fold to ≤5000-fold)	300 to 800	**** (selectivity of >1750-fold to ≤5000-fold)	> 2500
COC(=O)N[C@@H]1CC[C@@H](n2c(=O)n(C)c3cnc4[nH]c(-c5cn(C)nc5OC)c(-c5cccc(F)c5)c4c32)C1 [Example 3, Methyl ((1R,3R)-3-(8-(3-fluorophenyl)-7-(3-methoxy-1-methyl-1H-pyrazol-4-yl)-3-methyl-2-oxo-3,6-dihydroimidazo[4,5-d]pyrrolo[2,3-b]pyridin-1(2H)-yl)cyclopentyl)carbamate]	‡ ‡ (h-IntCL of ≥0.7 L/h/kg to ≤1 L/h/kg)	1250 to 2500	**** (selectivity of >1750-fold to ≤5000-fold)	300 to 800	**** (selectivity of >1750-fold to ≤5000-fold)	1250 to 2500
COC(=O)N[C@@H]1CC[C@@H](n2c(=O)n(C)c3cnc4[nH]c(-c5cn(C)nc5OC)c(-c5ccc(OC)c(F)c5)c4c32)C1 [Example 4, Methyl ((1R,3R)-3-(8-(3-fluoro-4-methoxyphenyl)-7-(3-methoxy-1-methyl-1H-pyrazol-4-yl)-3-methyl-2-oxo-3,6-dihydroimidazo[4,5-d]pyrrolo[2,3-b]pyridin-1(2H)-yl)cyclopentyl)carbamate]	‡ (h-IntCL of <0.7 L/h/kg)	> 2500	***** (selectivity of >5000-fold to ≤12500-fold)	300 to 800	****** (selectivity of >12500-fold)	> 2500
[2H]C([2H])([2H])n1ncc2cc(-c3c(-c4cn(C)nc4OC)[nH]c4ncc5c(c34)n([C@@H]3CC[C@@H](NC(=O)OC)C3)c(=O)n5C)ccc21 [Example 5, Methyl ((1R,3R)-3-(7-(3-methoxy-1-methyl-1H-pyrazol-4-yl)-3-methyl-8-(1-(methyl-d3)-1H-indazol-5-yl)-2-oxo-3,6-dihydroimidazo[4,5-d]pyrrolo[2,3-b]pyridin-1(2H)-yl)cyclopentyl)carbamate]	‡ (h-IntCL of <0.7 L/h/kg)	> 2500	****** (selectivity of >12500-fold)	≤ 300	****** (selectivity of >12500-fold)	> 2500
[2H]C([2H])([2H])n1cc(-c2[nH]c3ncc4c(c3c2-c2ccc3c(cnn3C([2H])([2H])[2H])c2)n([C@@H]2CC[C@@H](NC(=O)OC)C2)c(=O)n4C([2H])([2H])[2H])c(F)n1 [Example 6, Methyl ((1R,3R)-3-(7-(3-fluoro-1-(methyl-d3)-1H-pyrazol-4-yl)-3-(methyl-d3)-8-(1-(methyl-d3)-1H-indazol-5-yl)-2-oxo-3,6-dihydroimidazo[4,5-d]pyrrolo[2,3-b]pyridin-1(2H)-yl)cyclopentyl)carbamate]	‡ ‡ (h-IntCL of ≥0.7 L/h/kg to ≤1 L/h/kg)	> 2500	****** (selectivity of >12500-fold)	≤ 300	**** (selectivity of >1750-fold to ≤5000-fold)	250 to 1250
